From ChEMBL document CHEMBL5257101, “Synthesis and evaluation of sulfonamide derivatives targeting EGFR790M/L858R mutations and ALK rearrangement as anticancer agents” (Bioorg Med Chem, 2023)
pIC50: −log10 of the molar value. The source made the active and inactive calls. No cut-off for these calls is given here.

Columns and labels:
NCI-H1975 [1] = assay: Antiproliferative activity against human NCI-H1975 cells expressing EGFR T790M/ L858R double mutant assessed as inhibition of cell growth measured after 48 to 72 hrs by MTT assay; type: functional, cell-based
A549 = assay: Antiproliferative activity against human A549 cells expressing wild type EGFR assessed as inhibition of cell growth measured after 48 to 72 hrs by MTT assay; type: functional, cell-based
PC-9 = assay: Antiproliferative activity against human PC-9 cells expressing EGFR Del19 mutant assessed as inhibition of cell growth measured after 48 to 72 hrs by MTT assay; type: functional, cell-based
[2] = Cytotoxicity against human EA.hy 926 cells assessed as inhibition of cell growth measured after 48 to 72 hrs by MTT assay; type: toxicity, cell-based
[3] = Cytotoxicity against human HK-2 cells assessed as inhibition of cell growth measured after 48 to 72 hrs by MTT assay; type: toxicity, cell-based
HK-2 = assay: Effect on cell morphology in human HK-2 cells at 1 uM incubated for 24 hrs by inverted microscopic analysis; type: functional, cell-based
NCI-H2228 [4] = assay: Antiproliferative activity against human NCI-H2228 cells expressing ALK assessed as inhibition of cell growth measured after 48 to 72 hrs by MTT assay; type: functional, cell-based
[5] = biological target: ALK tyrosine kinase receptor (Homo sapiens, UniProt Q9UM73); assay: Inhibition of ALK (unknown origin) pre-incubated for 10 mins followed by substrate addition measured after 60 mins in presence of ATP by mobility shifting assay
[6] = Selectivity ratio, ratio of IC50 for human A549 cells expressing wild type EGFR to IC50 for human NCI-H1975 cells expressing EGFR T790M/ L858R double mutant by MTT assay
[7] = biological target: Epidermal growth factor receptor (Homo sapiens, UniProt P00533, L858R/T790M); assay: Inhibition of EGFR L858R/T790M double mutant (unknown origin) pre-incubated for 10 mins followed by substrate addition measured after 60 mins in presence of ATP by mobility shifting assay
[8] = biological target: Epidermal growth factor receptor (Homo sapiens, UniProt P00533); assay: Inhibition of wild type EGFR (unknown origin) pre-incubated for 10 mins followed by substrate addition measured after 60 mins in presence of ATP by mobility shifting assay
[9] = biological target: Epidermal growth factor receptor (Homo sapiens, UniProt P00533, EX19DEL); assay: Inhibition of EGFR Del19 mutant (unknown origin) pre-incubated for 10 mins followed by substrate addition measured after 60 mins in presence of ATP by mobility shifting assay
Homo sapiens [10] = organism: Homo sapiens; assay: Selectivity ratio, ratio of IC50 for wild type EGFR (unknown origin) to IC50 for EGFR L858R/T790M double mutant (unknown origin) by mobility shifting assay
Homo sapiens [11] = organism: Homo sapiens; assay: Selectivity ratio, ratio of IC50 for wild type EGFR (unknown origin) to IC50 for EGFR Del19 mutant (unknown origin) by mobility shifting assay
[12] = Selectivity ratio, ratio of IC50 for human A549 cells expressing wild type EGFR to IC50 for human PC-9 cells expressing EGFR Del19 mutant by MTT assay
NCI-H1975 [13] = assay: Effect on cell morphology in human NCI-H1975 cells assessed as appearance of blurred boundary region at 1 to 1000 nM incubated for 24 hrs; type: functional, cell-based; conditions: dose 1-1000 nM
NCI-H1975 [14] = assay: Effect on cell morphology in human NCI-H1975 cells assessed as cell shrinkage at 1 to 1000 nM incubated for 24 hrs; type: functional, cell-based; conditions: dose 1-1000 nM
NCI-H1975 [15] = assay: Effect on cell morphology in human NCI-H1975 cells assessed as cell aggregation at 1 to 1000 nM incubated for 24 hrs; type: functional, cell-based; conditions: dose 1-1000 nM
NCI-H1975 [16] = assay: Effect on cell morphology in human NCI-H1975 cells assessed as disappearance of cell morphology at 1 to 1000 nM incubated for 24 hrs; type: functional, cell-based; conditions: dose 1-1000 nM
NCI-H2228 [17] = assay: Effect on cell morphology in human NCI-H2228 cells assessed as increase of cell fragments at 1 to 1000 nM incubated for 24 hrs; type: functional, cell-based; conditions: dose 1-1000 nM
NCI-H2228 [18] = assay: Effect on cell morphology in human NCI-H2228 cells assessed as increase of cell shrinkage at 1 to 1000 nM incubated for 24 hrs; type: functional, cell-based; conditions: dose 1-1000 nM
NCI-H2228 [19] = assay: Effect on cell morphology in human NCI-H2228 cells assessed as increase of cell opacity at 1 to 1000 nM incubated for 24 hrs; type: functional, cell-based; conditions: dose 1-1000 nM
NCI-H2228 [20] = assay: Effect on cell morphology in human NCI-H2228 cells assessed as loss of cell morphology at 1 to 1000 nM incubated for 24 hrs; type: functional, cell-based; conditions: dose 1-1000 nM
NCI-H2228 [21] = assay: Effect on cell morphology in human NCI-H2228 cells assessed as loss of large number of floating cells at 1 to 1000 nM incubated for 24 hrs; type: functional, cell-based; conditions: dose 1-1000 nM
[22] = Selectivity ratio, ratio of IC50 for human NCI-H1975 cells expressing EGFR T790M/ L858R double mutant to IC50 for human EA.hy 926 cells by MTT assay
[23] = Selectivity ratio, ratio of IC50 for human NCI-H2228 cells expressing ALK to IC50 for human EA.hy 926 cells by MTT assay
[24] = Selectivity ratio, ratio of IC50 for human NCI-H1975 cells expressing EGFR T790M/ L858R double mutant to IC50 for human HK-2 cells by MTT assay
[25] = Selectivity ratio, ratio of IC50 for human NCI-H2228 cells expressing ALK to IC50 for human HK-2 cells by MTT assay
EA.hy 926 = assay: Effect on cell morphology in human EA.hy 926 cells at 1 uM incubated for 24 hrs by inverted microscopic analysis; type: functional, cell-based
NCI-H1975 [26] = assay: Induction of apoptosis in human NCI-H1975 cells expressing EGFR T790M/ L858R double mutant assessed as increase in DNA breakage measured after 24 hrs by Hoechst 33342 staining based fluorescence microscopic analysis; type: functional, cell-based; conditions: dose 5-25 nM
NCI-H2228 [27] = assay: Induction of apoptosis in human NCI-H2228 cells expressing ALK assessed as increase in DNA breakage measured after 24 hrs by Hoechst 33342 staining based fluorescence microscopic analysis; type: functional, cell-based; conditions: dose 5-25 nM
NCI-H1975 [28] = assay: Inhibition of human NCI-H1975 cell cloning incubated for 24 hrs by inverted microscopic analysis; type: functional, cell-based; conditions: dose 5-25 nM
NCI-H2228 [29] = assay: Inhibition of human NCI-H2228 cell cloning incubated for 24 hrs by inverted microscopic analysis; type: functional, cell-based; conditions: dose 1-20 nM
NCI-H1975 [30] = assay: Antimigratory activity against human NCI-H1975 cells assessed as decrease in healing rate upto 10 nM measured upto 36 hrs by scratch-wound healing assay; type: functional, cell-based
NCI-H1975 [31] = assay: Antimigratory activity against human NCI-H1975 cells assessed as reduction in cell migration incubated for 24 hrs by crystal violet staining microscopy based transwell migration assay; type: functional; conditions: dose 10-20 nM

Epidermal growth factor receptor (Homo sapiens, UniProt P00533, L858R/T790M), sequence (P00533 25-1210 T790M/L858R limits assumed): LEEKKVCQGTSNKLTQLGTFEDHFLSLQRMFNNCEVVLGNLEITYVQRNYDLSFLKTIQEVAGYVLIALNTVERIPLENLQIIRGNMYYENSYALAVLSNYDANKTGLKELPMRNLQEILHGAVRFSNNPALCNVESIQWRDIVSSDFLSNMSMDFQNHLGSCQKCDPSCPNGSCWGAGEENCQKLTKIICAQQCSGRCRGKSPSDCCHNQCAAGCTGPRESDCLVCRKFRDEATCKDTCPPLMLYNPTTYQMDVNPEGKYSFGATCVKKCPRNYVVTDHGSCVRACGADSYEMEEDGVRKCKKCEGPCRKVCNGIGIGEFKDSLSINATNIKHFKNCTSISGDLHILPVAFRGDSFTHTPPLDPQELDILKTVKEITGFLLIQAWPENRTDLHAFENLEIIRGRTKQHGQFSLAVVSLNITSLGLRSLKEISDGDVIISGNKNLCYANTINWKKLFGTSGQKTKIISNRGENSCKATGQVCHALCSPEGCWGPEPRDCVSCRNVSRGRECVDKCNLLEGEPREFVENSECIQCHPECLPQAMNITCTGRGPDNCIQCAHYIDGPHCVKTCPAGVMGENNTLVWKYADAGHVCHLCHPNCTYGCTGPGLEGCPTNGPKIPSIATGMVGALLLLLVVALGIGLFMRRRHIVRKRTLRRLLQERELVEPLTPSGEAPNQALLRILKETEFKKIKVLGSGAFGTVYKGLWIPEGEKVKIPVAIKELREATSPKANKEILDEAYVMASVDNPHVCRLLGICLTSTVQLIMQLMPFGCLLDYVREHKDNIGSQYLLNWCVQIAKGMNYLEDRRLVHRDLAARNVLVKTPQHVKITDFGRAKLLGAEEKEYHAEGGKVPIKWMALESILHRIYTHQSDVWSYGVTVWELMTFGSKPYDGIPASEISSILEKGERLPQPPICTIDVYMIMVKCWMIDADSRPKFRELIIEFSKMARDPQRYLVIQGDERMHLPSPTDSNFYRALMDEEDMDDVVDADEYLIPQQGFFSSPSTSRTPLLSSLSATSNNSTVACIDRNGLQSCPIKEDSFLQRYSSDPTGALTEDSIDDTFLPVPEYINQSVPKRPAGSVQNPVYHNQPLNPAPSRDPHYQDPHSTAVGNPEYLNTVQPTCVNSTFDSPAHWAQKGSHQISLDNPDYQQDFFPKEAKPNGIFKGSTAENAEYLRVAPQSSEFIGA
Epidermal growth factor receptor (Homo sapiens, UniProt P00533), sequence (P00533 whole entry): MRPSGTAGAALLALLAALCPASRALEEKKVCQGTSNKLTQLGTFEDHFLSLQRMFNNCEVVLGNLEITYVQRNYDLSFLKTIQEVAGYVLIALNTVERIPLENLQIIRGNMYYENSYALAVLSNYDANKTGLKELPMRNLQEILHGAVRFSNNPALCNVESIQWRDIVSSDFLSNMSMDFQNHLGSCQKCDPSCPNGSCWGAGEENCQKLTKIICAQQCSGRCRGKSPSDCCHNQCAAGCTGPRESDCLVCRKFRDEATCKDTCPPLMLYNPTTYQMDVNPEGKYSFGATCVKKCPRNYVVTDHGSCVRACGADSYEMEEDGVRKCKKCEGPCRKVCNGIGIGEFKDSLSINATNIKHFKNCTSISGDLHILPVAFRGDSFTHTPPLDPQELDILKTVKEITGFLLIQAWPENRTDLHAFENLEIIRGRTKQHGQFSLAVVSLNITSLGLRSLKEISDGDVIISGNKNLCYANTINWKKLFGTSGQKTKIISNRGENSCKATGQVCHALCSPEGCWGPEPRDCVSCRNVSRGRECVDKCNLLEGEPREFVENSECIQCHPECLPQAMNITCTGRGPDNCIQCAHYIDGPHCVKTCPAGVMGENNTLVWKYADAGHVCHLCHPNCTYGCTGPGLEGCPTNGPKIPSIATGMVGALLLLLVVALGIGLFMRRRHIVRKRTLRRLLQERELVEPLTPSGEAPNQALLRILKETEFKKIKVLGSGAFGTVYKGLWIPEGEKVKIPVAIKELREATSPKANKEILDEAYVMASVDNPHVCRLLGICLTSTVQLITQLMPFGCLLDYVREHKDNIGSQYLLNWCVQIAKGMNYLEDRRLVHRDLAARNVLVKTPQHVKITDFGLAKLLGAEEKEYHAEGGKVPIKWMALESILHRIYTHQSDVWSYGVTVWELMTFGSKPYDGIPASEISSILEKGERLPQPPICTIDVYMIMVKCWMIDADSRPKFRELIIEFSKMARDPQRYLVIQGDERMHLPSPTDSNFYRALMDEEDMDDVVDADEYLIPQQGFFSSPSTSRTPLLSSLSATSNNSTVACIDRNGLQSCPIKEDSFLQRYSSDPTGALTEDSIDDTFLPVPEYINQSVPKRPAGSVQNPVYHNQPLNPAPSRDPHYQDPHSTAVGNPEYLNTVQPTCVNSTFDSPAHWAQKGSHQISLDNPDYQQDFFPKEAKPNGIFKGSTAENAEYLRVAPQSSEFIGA
Epidermal growth factor receptor (Homo sapiens, UniProt P00533, EX19DEL), sequence (P00533 whole entry, looked up, stated change not applied): as the sequence (P00533 whole entry) above

C=CC(=O)Nc1cc(Nc2nccc(-c3cn(C)c4ccccc34)n2)c(OC)cc1N(C)CCN(C)C [OSIMERTINIB]
pIC50 (NCI-H1975 [1]): […] | pIC50 (A549): 5.81 | pIC50 (PC-9): […] | pIC50 [2]: 5.94 | pIC50 [3]: 5.62 | Activity (HK-2): inactive

COCCOc1cc2ncnc(Nc3ccccc3S(=O)(=O)N(C)C)c2cc1OCCOC
pIC50 (NCI-H1975 [1]): < 5.00 | pIC50 (NCI-H2228 [4]): < 5.00

COCCOc1cc2ncnc(N(C)c3ccccc3S(=O)(=O)N(C)C)c2cc1OCCOC
pIC50 (NCI-H1975 [1]): < 5.00 | pIC50 (NCI-H2228 [4]): < 5.00

C=CC(=O)Nc1cc(Nc2ncc(Cl)c(Nc3ccccc3S(=O)(=O)N3CCCC3)n2)c(OC)cc1N(C)CCN(C)C
pIC50 (NCI-H1975 [1]): 7.87 | pIC50 (NCI-H2228 [4]): 7.85

CNC(=O)c1ccccc1Nc1ncnc2cc(OCCOC)c(OCCOC)cc12
pIC50 (NCI-H1975 [1]): < 5.00 | pIC50 (NCI-H2228 [4]): < 5.00

C=CC(=O)Nc1cc(Nc2ncc(F)c(Nc3ccccc3S(=O)(=O)N(C)C)n2)c(OC)cc1N(C)CCN(C)C
pIC50 (NCI-H1975 [1]): 7.17 | pIC50 (NCI-H2228 [4]): 7.35

COc1cc(N(C)CCN(C)C)c(NC(=O)CCl)cc1Nc1ncc(Cl)c(Nc2ccccc2S(=O)(=O)N(C)C)n1
pIC50 (NCI-H1975 [1]): 5.99 | pIC50 (NCI-H2228 [4]): 6.98

COCCOc1cc2ncnc(Nc3ccccc3S(=O)(=O)N3CCCC3)c2cc1OCCOC
pIC50 (NCI-H1975 [1]): < 5.00 | pIC50 (NCI-H2228 [4]): < 5.00

C=CC(=O)Nc1cc(Nc2ncc(Cl)c(Nc3ccccc3S(=O)(=O)N(C)C3CC3)n2)c(OC)cc1N(C)CCN(C)C
pIC50 (NCI-H1975 [1]): 7.00 | pIC50 (NCI-H2228 [4]): 7.61

Cc1cc(N(C)CCN(C)C)ccc1Nc1ncc(Cl)c(Nc2ccccc2S(=O)(=O)N(C)C)n1
pIC50 (NCI-H1975 [1]): 6.77 | pIC50 (NCI-H2228 [4]): 7.26

C=CC(=O)Nc1cc(Nc2ncc(Cl)c(Nc3ccccc3S(=O)(=O)NC3CC3)n2)c(OC)cc1N(C)CCN(C)C
pIC50 (NCI-H1975 [1]): 7.67 | pIC50 (NCI-H2228 [4]): 7.96 | pIC50 [5]: 8.48 | Ratio IC50 [6]: 77.25 | pIC50 [7]: 8.97 | pIC50 [8]: 7.63 | pIC50 [9]: 9.14 | Ratio IC50 (Homo sapiens [10]): 21.5 | Ratio IC50 (Homo sapiens [11]): 32.3 | pIC50 (A549): 5.81 | pIC50 (PC-9): 7.70 | Ratio IC50 [12]: 71.86 | Activity (NCI-H1975 [13]): Active | Activity (NCI-H1975 [14]): Active | Activity (NCI-H1975 [15]): Active | Activity (NCI-H1975 [16]): Active | Activity (NCI-H2228 [17]): Active | Activity (NCI-H2228 [18]): Active | Activity (NCI-H2228 [19]): Active | Activity (NCI-H2228 [20]): Active | Activity (NCI-H2228 [21]): Active | pIC50 [2]: 5.79 | pIC50 [3]: 5.48 | Ratio IC50 [22]: 74.83 | Ratio IC50 [23]: 146.27 | Ratio IC50 [24]: 157.28 | Ratio IC50 [25]: 300.27 | Activity (EA.hy 926): Active | Activity (HK-2): Active | Activity (NCI-H1975 [26]): Dose-Dependent Effect | Activity (NCI-H2228 [27]): Dose-Dependent Effect | inhibition (NCI-H1975 [28]): Active | inhibition (NCI-H2228 [29]): Active | Activity (NCI-H1975 [30]): Active | Activity (NCI-H1975 [31]): Dose-Dependent Effect

CNS(=O)(=O)c1ccccc1Nc1ncnc2cc(OCCOC)c(OCCOC)cc12
pIC50 (NCI-H1975 [1]): < 5.00 | pIC50 (NCI-H2228 [4]): < 5.00

C=CC(=O)Nc1cc(Nc2ncc(F)c(Nc3ccccc3S(=O)(=O)N3CCCC3)n2)c(OC)cc1N(C)CCN(C)C
pIC50 (NCI-H1975 [1]): 7.09 | pIC50 (NCI-H2228 [4]): 7.72

Cc1cc(Nc2ncc(Cl)c(Nc3ccccc3S(=O)(=O)C(C)C)n2)c(OC(C)C)cc1C1CCNCC1 [CERITINIB]
pIC50 [2]: 6.00 | pIC50 [3]: 5.60 | Ratio IC50 [23]: 228.36 | Ratio IC50 [25]: 77.69

COCCOc1cc2ncnc(Nc3ccccc3S(=O)(=O)NC3CC3)c2cc1OCCOC
pIC50 (NCI-H1975 [1]): < 5.00 | pIC50 (NCI-H2228 [4]): < 5.00

CCN(CC)S(=O)(=O)c1ccccc1Nc1ncnc2cc(OCCOC)c(OCCOC)cc12
pIC50 (NCI-H1975 [1]): < 5.00 | pIC50 (NCI-H2228 [4]): < 5.00

CN(C)CCN(C)c1ccc(Nc2ncc(Cl)c(Nc3ccccc3S(=O)(=O)N(C)C)n2)cc1
pIC50 (NCI-H1975 [1]): 7.21 | pIC50 (NCI-H2228 [4]): 6.97

C=CC(=O)Nc1cc(Nc2ncc(Cl)c(Nc3ccccc3S(=O)(=O)N(C)C)n2)c(OC)cc1N(C)CCN(C)C
pIC50 (NCI-H1975 [1]): 7.90 | pIC50 (NCI-H2228 [4]): 7.74
